Type in all cases: cell-based
One test has as its system Escherichia coli. Description: MIC agar dilution, micro-organism 1 (10418). The conditions noted are these: Escherichia coli 10418. Here is the method: (§1) Throughout the period of testing the microbial strains were subcultured and incubated for 18-20 hours at 37° C. on a weekly basis. Horse blood agar plates were used to sustain the micro-organisms both prior to and throughout testing. The alkoxylated alkanols listed in Table II below were obtained (these are obtainable from Sigma-Aldrich Company Ltd, Dorset, England), each having a GC purity of at least 97%.
(§2) Molar equivalent concentrations were used to allow comparison between compounds of differing molecular mass. Due to weighing difficulties, any compound in solid form was melted in a water bath prior to dilution. To make ten-times strength concentrations, which takes into account agar dilution, 0.0352 mmol of each compound was weighed into plastic universal bottles and 4 mL of sterile distilled water (SDW) was added. To produce a homogenous emulsion the universals were vortexed; once achieved the emulsions were serial diluted by adding 2 mL to 2 mL of SDW.
(§3) Myristyl alcohol and lauryl alcohol were re-weighed and dissolved in 25 μL of the polar solvent 1-methyl-2-pyrrolidone (M6762; Sigma-Aldrich) in sterile glass universals due to an inability to achieve an even suspension. To maintain an even emulsion in the presence of SDW 37.5 μL of the non-ionic detergent Tween 20 (P1379, Sigma-Aldrich) was also added. 3.9375 mL of SDW was added to these, to create a 4 mL volume; they were vortexed and diluted as before.
(§4) For every 100 mL of Isosensitest agar (IST) (CM0471; Oxoid, Basingstoke, England), 3.1 g of the IST powder was added to 100 mL SDW (as per manufacturer's instructions) and sterilised for 15 minutes at 121° C. Once sterilised, the molten agar was cooled to 50° C. in a water-bath. Subsequently 4.8 g of CCEY powder (BC2160; Bioconnections, Wetherby, England), also known as Brazier's medium, was added to 100 mL SDW for every 100 mL of agar needed. This was then sterilised for 15 minutes at 121° C. Once sterilised the molten agar was cooled to 50° C. in a water-bath and 4 mL of egg-yolk emulsion (S2073; TCS Biosciences Ltd, Buckingham, United Kingdom) and 1 mL of lysed defibrinated horse blood (HB035; TCS Biosciences Ltd, Buckingham, United Kingdom) were also added for every 100 mL needed. Horse blood lysis is achieved by dilution to half concentration with SDW; when fully lysed the mixture will turn dark red in colour.
(§5) 18 mL agar was added to each universal and then poured into sterile Petri dishes. This step creates a 1/10 dilution resulting in agar plates of the required strength. Control plates for each set of strains were created by adding 18 mL of agar to 2 mL of SDW.
(§6) Suspensions of each bacterial species were prepared with a density equal to that of a 0.5 McFarland standard using a densitometer. All suspensions were made using sterile distilled water and fresh 18-20 hour cultures. As a 0.5 McFarland standard contains 1.5×10^8 CFU/mL and the multipoint inoculators applies 1 μL spots of liquid, each bacterial suspension was diluted 1/15 (20 μL suspension to 280 μL sterile distilled water).
(§7) Bacterial suspensions were prepared from fresh 18-24 hour cultures as previously described. 1 μL of each strain was inoculated onto all 100 agar plates containing a different chemical concentration and the 2 control plates. This was done using a multipoint inoculator which inoculates 20 strains per plate. All plates were incubated for 22 hours at 37° C. in aerobic conditions.
(§8) Each plate was examined for bacterial growth after 22 and 48 hours, with each being incubated in between examinations. A positive result was recorded as growth of ≧10 colonies. A negative result was recorded as growth of <10 colonies as this is equivalent to 99.9% inhibition. The lowest concentration of chemical that inhibited growth was recorded as the MIC. The results are recorded in Table IV below, where the numbers are quoted in mmol/L. […]

For another test, the system named is Providencia rettgeri. The experiment in a line: MIC agar dilution, micro-organism 3 (7475). Particulars: Providencia rettgeri 7475. How it is done:
as §1, §2, §3, §4, §5, §6, §7, §8
(In general: In agar dilution, organisms are placed on agar that contains the substance at set levels.)

A further test deals with Steptococcus pyogenes. The experiment in a line: MIC agar dilution, micro-organism 11 (8306). The conditions noted are these: Steptococcus pyogenes 8306. How it is done:
as §1, §2, §3, §4, §5, §6, §7, §8

Test [1] concerns Staphylococcus aureus (MRSA). Description: MIC agar dilution, micro-organism 12 (11939). Particulars: Staphylococcus aureus (MRSA) 11939. Here is the method: as §1, §2, §3, §4, §5, §6, §7, §8
The test system of the next test is Staphylococcus aureus. Description: MIC agar dilution, micro-organism 13 (6571). Particulars: Staphylococcus aureus 6571. How it is done:
as §1, §2, §3, §4, §5, §6, §7, §8

The subject of test [2] is Staphylococcus epidermidis. The experiment in a line: MIC agar dilution, micro-organism 14 (11047). The conditions noted are these: Staphylococcus epidermidis 11047. Here is the method:
as §1, §2, §3, §4, §5, §6, §7, §8

The subject of a further test is Listeria monocytogenes. Description: MIC agar dilution, micro-organism 15 (11994). Particulars: Listeria monocytogenes 11994. Here is the method: as §1, §2, §3, §4, §5, §6, §7, §8
The test system of another test is Enterococcus faecium. The experiment in a line: MIC agar dilution, micro-organism 16 (7171). Particulars: Enterococcus faecium 7171. Here is the method: as §1, §2, §3, §4, §5, §6, §7, §8
A further test relates to Enterococcus faecalis. Description: MIC agar dilution, micro-organism 17 (775). The conditions noted are these: Enterococcus faecalis 775. How it is done: as §1, §2, §3, §4, §5, §6, §7, §8
In another test the test system is Bacillus subtilis. Description: MIC agar dilution, micro-organism 18 (9372). Particulars: Bacillus subtilis 9372. How it is done: as §1, §2, §3, §4, §5, §6, §7, §8
Another test concerns Candida albicans. Description: MIC agar dilution, micro-organism 19 (90028). The conditions noted are these: Candida albicans 90028. Here is the method: as §1, §2, §3, §4, §5, §6, §7, §8
The subject of another test is Candida glabrata. The experiment in a line: MIC agar dilution, micro-organism 20 (3943). Particulars: Candida glabrata 3943. Here is the method:
as §1, §2, §3, §4, §5, §6, §7, §8

The mark [3] stands for this setting: Staphylococcus aureus, MRSA, 22 h, 22 hrs, read-out: MIC.
The mark [4] stands for this setting: Staphylococcus aureus, MRSA, 48 h, 48 hrs, read-out: MIC.
[5] abbreviates: Staphylococcus aureus, 22 h, 22 hrs, read-out: MIC.
Where [6] appears, read: Staphylococcus aureus, 48 h, 48 hrs, read-out: MIC.
Setting [7] is: Nakaseomyces glabratus, 22 h, 22 hrs, read-out: MIC.
The mark [8] stands for this setting: Nakaseomyces glabratus, 48 h, 48 hrs, read-out: MIC.

SMILES strings stand for the structures. Converted amounts (≈) assume the structure as drawn. Where two headings read alike, the source gives them in different places.

Take `CCCCCCCCCCCCCCOCCOCCOCCOCCOCCOCCOCCOCCO` [M8, Octaethylene Glycol Monotetradecyl Ether]: the MIC (commonly the lowest concentration that inhibits growth of the organism) in the test on Escherichia coli (22 hrs, read-out: MIC) is greater than 880 µM; with Escherichia coli (48 hrs, read-out: MIC), greater than 880 µM; with Providencia rettgeri (22 hrs, read-out: MIC), greater than 880 µM; in the test with Providencia rettgeri (48 hrs, read-out: MIC), greater than 880 µM; with Steptococcus pyogenes (22 h, 22 hrs, read-out: MIC), 550 µM (≈ 312 µg/mL); in the test on Steptococcus pyogenes (48 h, 48 hrs, read-out: MIC), 55 µM (≈ 31.2 µg/mL). For the same molecule, the MIC in test [1] (setting [3]) worked out at 440 µM (≈ 249 µg/mL); in test [1] (setting [4]) it was 440 µM (≈ 249 µg/mL); in the test on Staphylococcus aureus (setting [5]) it was 110 µM (≈ 62.3 µg/mL); in the test on Staphylococcus aureus (setting [6]), 110 µM (≈ 62.3 µg/mL); in [2] (22 hrs, read-out: MIC) it was 220 µM (≈ 125 µg/mL); in [2] (48 hrs, read-out: MIC), 220 µM (≈ 125 µg/mL). Moreover, the MIC is greater than 880 µM with Listeria monocytogenes (22 hrs, read-out: MIC); greater than 880 µM with Listeria monocytogenes (48 hrs, read-out: MIC); greater than 880 µM in the test with Enterococcus faecium (22 hrs, read-out: MIC); greater than 880 µM in the test on Enterococcus faecium (48 hrs, read-out: MIC); 55 µM (≈ 31.2 µg/mL) in the test on Enterococcus faecalis (22 hrs, read-out: MIC); 55 µM (≈ 31.2 µg/mL) with Enterococcus faecalis (48 hrs, read-out: MIC). Moreover, the MIC in the test on Bacillus subtilis (22 hrs, read-out: MIC) is 110 µM (≈ 62.3 µg/mL); in the test with Bacillus subtilis (48 hrs, read-out: MIC), 110 µM (≈ 62.3 µg/mL); in the test with Candida albicans (22 hrs, read-out: MIC), greater than 880 µM; in the test on Candida albicans (48 hrs, read-out: MIC) it was greater than 880 µM; in the test with Candida glabrata (setting [7]), greater than 880 µM; in the test with Candida glabrata (setting [8]), greater than 880 µM.
Regarding `CCCCCCCCCCCCO` [L0, 1-Dodecanol, reference compound], the MIC in the test with Escherichia coli (22 hrs, read-out: MIC) is greater than 880 µM; in the test on Escherichia coli (48 hrs, read-out: MIC), greater than 880 µM; in the test on Providencia rettgeri (22 hrs, read-out: MIC), greater than 880 µM; in the test with Providencia rettgeri (48 hrs, read-out: MIC), greater than 880 µM; in the test on Steptococcus pyogenes (22 h, 22 hrs, read-out: MIC) it was 440 µM (≈ 82 µg/mL); in the test on Steptococcus pyogenes (48 h, 48 hrs, read-out: MIC), no less than 880 µM. The MIC in test [1] (setting [3]) was 440 µM (≈ 82 µg/mL); in [1] (setting [4]), no less than 880 µM; in the test on Staphylococcus aureus (setting [5]), 440 µM (≈ 82 µg/mL); with Staphylococcus aureus (setting [6]), no less than 880 µM; in [2] (22 hrs, read-out: MIC), greater than 880 µM; in [2] (48 hrs, read-out: MIC), greater than 880 µM. In addition, the MIC in the test with Listeria monocytogenes (22 hrs, read-out: MIC) is greater than 880 µM; in the test on Listeria monocytogenes (48 hrs, read-out: MIC), greater than 880 µM; in the test on Enterococcus faecium (22 hrs, read-out: MIC), greater than 880 µM; in the test with Enterococcus faecium (48 hrs, read-out: MIC), greater than 880 µM; in the test with Enterococcus faecalis (22 hrs, read-out: MIC) it was greater than 880 µM; in the test on Enterococcus faecalis (48 hrs, read-out: MIC), greater than 880 µM. The MIC was greater than 880 µM in the test with Bacillus subtilis (22 hrs, read-out: MIC); greater than 880 µM in the test with Bacillus subtilis (48 hrs, read-out: MIC); greater than 880 µM in the test on Candida albicans (22 hrs, read-out: MIC); greater than 880 µM in the test with Candida albicans (48 hrs, read-out: MIC); 440 µM (≈ 82 µg/mL) in the test on Candida glabrata (setting [7]); no less than 880 µM with Candida glabrata (setting [8]).
On to `CCCCCCCCCCCCCCCCOCCOCCO` [C2], for which the MIC against Escherichia coli (22 hrs) is greater than 880 µM; with Escherichia coli (48 hrs) it was greater than 880 µM; with Providencia rettgeri (22 hrs), greater than 880 µM; with Providencia rettgeri (48 hrs), greater than 880 µM; in the test with Steptococcus pyogenes (22 hrs), 880 µM (≈ 291 µg/mL); in the test with Steptococcus pyogenes (48 hrs), greater than 880 µM. The MIC (in test [1] (22 hrs); in test [1] (48 hrs); in the test on Staphylococcus aureus (22 hrs); in the test on Staphylococcus aureus (48 hrs); in [2] (22 hrs); in [2] (48 hrs)) was greater than 880 µM in each case. Also, the MIC against Listeria monocytogenes (22 hrs), in the test on Listeria monocytogenes (48 hrs), in the test with Enterococcus faecium (22 hrs), in the test on Enterococcus faecium (48 hrs), against Enterococcus faecalis (22 hrs) and against Enterococcus faecalis (48 hrs) was greater than 880 µM throughout. Also, the MIC with Bacillus subtilis (22 hrs) was greater than 880 µM; against Bacillus subtilis (48 hrs), greater than 880 µM; with Candida albicans (22 hrs), greater than 880 µM; against Candida albicans (48 hrs), greater than 880 µM; in the test with Candida glabrata (22 hrs), 880 µM (≈ 291 µg/mL); in the test with Candida glabrata (48 hrs), greater than 880 µM.

These data come from patent US20130165368A1, “ANTIMICROBIAL COMPOUNDS” (priority 2010, published 2013).
